Data taken from doi:10.1101/2020.05.29.122762v3 (biorxiv, 2020).
Where two headings read alike, the source gives them in different places.

Assays:
[1] = molecular target: type PO SadP-6407(31-328); conditions: PBS, 25 °C
[2] = molecular target: T1, type PN SadP-D282(31-328) (Streptococcus suis, UniProt G5DSS1); conditions: PBS, 25 °C; n=1.14
T1 sequence (G5DSS1 31-328): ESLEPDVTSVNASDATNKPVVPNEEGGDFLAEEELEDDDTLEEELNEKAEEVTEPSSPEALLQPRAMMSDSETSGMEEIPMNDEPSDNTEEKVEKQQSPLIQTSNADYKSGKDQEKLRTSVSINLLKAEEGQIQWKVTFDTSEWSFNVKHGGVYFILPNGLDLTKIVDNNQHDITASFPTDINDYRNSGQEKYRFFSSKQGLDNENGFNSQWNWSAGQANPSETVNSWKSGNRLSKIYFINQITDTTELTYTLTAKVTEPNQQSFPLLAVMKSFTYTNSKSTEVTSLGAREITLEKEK

type PN SadP(125-329) [3] = molecular target: T2, type PN SadP(125-329) (Streptococcus suis, UniProt G5DSS1); test: biochemical
T2 sequence (G5DSS1 125-329): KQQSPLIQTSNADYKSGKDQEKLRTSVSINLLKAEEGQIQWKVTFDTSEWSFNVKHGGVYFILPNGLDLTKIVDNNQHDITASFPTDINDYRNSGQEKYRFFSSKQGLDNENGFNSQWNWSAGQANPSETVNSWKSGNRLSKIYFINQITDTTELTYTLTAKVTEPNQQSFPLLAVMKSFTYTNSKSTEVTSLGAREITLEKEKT

type PN SadP(125-329) [4] = molecular target: type PN SadP(125-329) (Streptococcus suis, UniProt G5DSS1, N271D); test: biochemical

| SMILES | Kd ([1]; n=0.13, poorly defined fit) | Kd [2] | Kd (type PN SadP(125-329) [3]) | Kd ([1]; n=0.85) | Kd (type PN SadP(125-329) [4]) |
| --- | --- | --- | --- | --- | --- |
| CC(=O)N[C@H]1[C@H](O[C@H]2[C@@H](O)[C@@H](CO)O[C@H](O[C@@H]3[C@H](O)[C@@H](O)[C@H](OCC[Si](C)(C)C)O[C@@H]3CO)[C@@H]2O)O[C@H](CO)[C@H](O)[C@@H]1O [GalNAcβ1–3Galα1–4Gal TMSEt glycoside] | 940 ± 680 µM | 33.7 ± 3.5 µM | 36 ± 4.8 µM | – | – |
| C[Si](C)(C)CCO[C@@H]1O[C@H](CO)[C@H](O[C@H]2O[C@H](CO)[C@H](O)[C@H](O)[C@H]2O)[C@H](O)[C@H]1O [Galα1–4Gal TMSEt glycoside] | – | – | – | 3.5 ± 1.6 µM | 22.7 ± 7.2 µM |
